Where no end group is shown, it is not given here. The star is where a group is joined. Biotin = O=C1N[C@H]2[C@H](CS[C@H]2CCCCC(=O)*)N1
Tests used:
P. falciparum aldolase = molecular target: T1, P. falciparum aldolase (Plasmodium falciparum, UniProt Q7KQL9); assay: biochemical; assay type: binding; conditions: for increase in affinity for aldolase following phosphorylation: phosphorylated versus unmodified CTD, from Kd values of Table 3
T1 construct: made in house
From the text: CTDs of four classes of type 1 membrane protein (AMA1 and the TRAP, EBL and RH families) that are potential adhesins or host cell invasion proteins derived from apical organelles, and present in the merozoite plasma membrane during invasion, were examined for their ability to bind to aldolase using bio-layer interferometry. Streptavidin-coated biosensors were loaded with biotinylated synthetic peptides or recombinant proteins representing either the full length CTDs or shorter C-terminal sequences (Table 1) and titrated with increasing aldolase concentrations. This analysis enabled the calculation of a dissociation constant (Kd) for each pair of proteins as a measure of the strength of interaction between them.
The effect of the CTD phosphorylation on aldolase binding was investigated using biolayer interferometry using phosphorylated synthetic peptides or peptides phosphorylated in vitro (Table 3).
Protein interactions were analysed by biolayer interferometry using the Octet Red system (ForteBio) at 25°C in 96-well microplates, as described previously. All assays were performed in 100 mM Tris-HCl pH 8.0, according to the manufacturer’s instructions. A baseline was established over 1 min, and biotinylated samples were loaded onto streptavidin sensors for 1 min. The sensors were washed for 1 min and then incubated with aldolase at different concentrations (0.05–250 μM) for 1 min, followed by a dissociation phase over 5 min. The experiments were performed in duplicate or triplicate depending on the experiment. The data were analysed as described previously.

CK2 = assay: In vitro phosphorylation of CTDs by CK2; assay type: biochemical; conditions: 10 μM kinase, 100 μM substrate, 1 mM ATP, 30°C, 3 hours; ES-MS and CID
Description: The phosphorylation of MTRAP and TRAP CTDs expressed as fusion proteins with GST was evaluated in vitro by ^32P incorporation (Fig 1A) and by electrospray (ES) mass spectrometry and collision-induced dissociation (CID) fragmentation analysis. […] MTRAP CTD produced as either a recombinant protein or as a synthetic peptide was also phosphorylated by PKA at the same two positions (S2A Fig). […] Using ES-MS and CID it was determined that both CDPK1 and PKA phosphorylated AMA1 at Ser610 (S1B and S2B Figs), the residue implicated in earlier studies. […] CDPK1 but not PKA phosphorylated EBA140 (Table 2, S2E Fig), the exact sites of which were not determined (S1E Fig). […]
(§1) Phosphorylation assays were performed using 10 μM recombinant CDPK1 [37], PKA (Promega), or CK2 (New England Biolabs) in kinase buffer (20 mM Tris-HCl pH 8.0, 20 mM MgCl2, with or without 1 mM CaCl2) and 1 mM ATP at 30°C for 3 hours with 100 μM substrate protein. Products were analysed by mass spectrometry and used in binding assays (see below). […]
Non-phosphorylated, phosphorylated and biotinylated polypeptides were analysed by electrospray (ES)-mass spectrometry and collision-induced dissociation (CID) fragmentation pathway analysis. […] Phosphorylation sites were determined using stand-alone nanospray on an LTQ Orbitrap Velos (Thermo Fisher Scientific). […]

CDPK1 = assay: In vitro phosphorylation of CTDs by CDPK1; assay type: biochemical; design: key: Phosphorylation (+) was confirmed by electrospray-mass spectrometry; conditions: 10 μM kinase, 100 μM substrate, 1 mM ATP, 30°C, 3 hours; electrospray-mass spectrometry
Description: To examine whether or not phosphorylation affected the ability of the CTDs to bind aldolase, we first looked at their ability to be phosphorylated by serine/threonine kinases in vitro. Two kinases, CDPK1 and PKA, which have been implicated in phosphorylation of glideosome proteins, were chosen for this analysis (Table 2).
The phosphorylation of MTRAP and TRAP CTDs expressed as fusion proteins with GST was evaluated in vitro by ^32P incorporation (Fig 1A) and by electrospray (ES) mass spectrometry and collision-induced dissociation (CID) fragmentation analysis. […] Using ES-MS and CID it was determined that both CDPK1 and PKA phosphorylated AMA1 at Ser610 (S1B and S2B Figs), the residue implicated in earlier studies. […] CDPK1 but not PKA phosphorylated EBA140 (Table 2, S2E Fig), the exact sites of which were not determined (S1E Fig). […]
as §1
Non-phosphorylated, phosphorylated and biotinylated polypeptides were analysed by electrospray (ES)-mass spectrometry and collision-induced dissociation (CID) fragmentation pathway analysis. […]

T1 sequence (Q7KQL9 whole entry): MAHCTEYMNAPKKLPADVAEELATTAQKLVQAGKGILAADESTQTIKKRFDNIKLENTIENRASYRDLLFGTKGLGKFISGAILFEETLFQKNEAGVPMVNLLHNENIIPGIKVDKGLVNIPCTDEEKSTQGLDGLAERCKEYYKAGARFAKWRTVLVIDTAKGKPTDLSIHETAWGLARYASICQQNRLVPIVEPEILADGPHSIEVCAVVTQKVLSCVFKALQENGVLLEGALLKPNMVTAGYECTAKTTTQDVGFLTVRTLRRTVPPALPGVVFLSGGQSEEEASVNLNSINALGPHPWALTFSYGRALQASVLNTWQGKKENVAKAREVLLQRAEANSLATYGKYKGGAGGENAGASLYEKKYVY

Substance	increase in affinity for aldolase following phosphorylation (P. falciparum aldolase)	phosphorylation by CK2 in vitro (CK2)	Kd (P. falciparum aldolase; biolayer interferometry (Octet Red), biotinylated CTD on streptavidin sensor, aldolase 0.05–250 μM, 100 mM Tris-HCl pH 8.0, 25°C, mean of duplicate reactions) [µM]	CTD peptide phosphorylation by CDPK1 in vitro (CDPK1)
Biotin-KNSNEPHHIFNIFQKEFSEADNAHSEEKEEYLPVYFDEVEDEVEDEVEDEDENENEVENENEDFNDI [RH4, cytoplasmic domain of RH4, residues 1650–1716]	no increase in affinity	one phosphate group	–	–
Biotin-KNNKQEYDKEQEKQQQNDFVCDNNKMDDKSTQKYGRNQEEVMEIFFDNDYI [RH1 2921–2971]	around 2 fold	–	6.1	+
